In US11517628B2, “Particles for spatiotemporal release of agents” (Yale University, priority 2018, dated 2022):

System: bone marrow-derived dendritic cells (BMDCs)
Assay: BMDC surface marker expression by FACS
Format: cell-based, mouse
Method: Bone marrow-derived dendritic cells (BMDCs) were generated as described by Zanoni et al. Generation of mouse bone marrow-derived dendritic cells (BM-DCs) (2009). Briefly, bone marrow progenitor cells were isolated from the femur of C57BL/6J mouse and cultured with media containing 20 ng/ml of GM-CSF. Cells were replenished with fresh media after 5 days of culture and collected after 48 hours of media replenishment. Naïve CD4 T cells and T cells were collected from OT-II splenocytes by using naïve CD4 T cell or CD3 T cell isolation kit (STEMCELL Technologies), respectively.
When ready for flow cytometry (FACS) analysis, cells were transferred to a 96-well U-bottom plate and spun at 500 g for 5 minutes. […]
FACS was performed by either LSR-II (Becton Dickinson) or Attune NxT flow cytometer. […] All FACS data was analyzed on FlowJo software (Tree Star Inc., Ashland, Oreg.).
DCs are one of the best antigen presenting cells that express costimulatory molecules and present antigens, which are modulated by mTOR signaling and antigen processing, respectively. […] DCs from the bone marrow (BMDCs) were harvested and treated with 100 ng/ml of free RAPA or 2 μg/ml of free OVA for either 72 hours or for 24 hours and analyzed by FACS. In all following experiments, BMDCs were gated on CD11c+, live cells, and surface markers of BMDCs were analyzed by flow cytometry. […]

Molecule | Expression of surface markers PD-L1, CD80, CD86, and MHC II (free RAPA 100 ng/ml, 72 hours compared to 24 hours) | Expression of surface markers PD-L1, CD80, CD86, and MHC II (free OVA 2 μg/ml, 72 hours vs 24 hours)
CO[C@H]1C[C@@H]2CC[C@@H](C)[C@@](O)(O2)C(=O)C(=O)N2CCCC[C@H]2C(=O)O[C@H]([C@H](C)C[C@@H]2CC[C@@H](O)[C@H](OC)C2)CC(=O)[C@H](C)/C=C(\C)[C@@H](O)[C@@H](OC)C(=O)[C@H](C)C[C@H](C)/C=C/C=C/C=C/1C [free RAPA, Rapamycin] | diminished expression of surface markers | 
free OVA: Ovalbumin, the model antigen, given soluble (protein, UniProt P01012 2-386, looked up) Ovalbumin: GSIGAASMEFCFDVFKELKVHHANENIFYCPIAIMSALAMVYLGAKDSTRTQINKVVRFDKLPGFGDSIEAQCGTSVNVHSSLRDILNQITKPNDVYSFSLASRLYAEERYPILPEYLQCVKELYRGGLEPINFQTAADQARELINSWVESQTNGIIRNVLQPSSVDSQTAMVLVNAIVFKGLWEKAFKDEDTQAMPFRVTEQESKPVQMMYQIGLFRVASMASEKMKILELPFASGTMSMLVLLPDEVSGLEQLESIINFEKLTEWTSSNVMEERKIKVYLPRMKMEEKYNLTSVLMAMGITDVFSSSANLSGISSAESLKISQAVHAAHAEINEAGREVVGSAEAGVDAASVSEEFRADHPFLFCIKHIATNAVLFFGRCVSP |  | no differences were observed
